# Reference: patent US8470862B2, “Treatment or prevention of hypotension and shock” (Recro Pharma, Inc., priority 1999, dated 2013)
# Test system: anaesthetized rats
# Experiment: Blood pressure and heart rate after slow intravenous administration in anaesthetized rats
# Format: in vivo
# Details: for HR (beats/min) / MAP (mmHg): mean ± SEM, n=6; for maximal change in HR / maximal change in MAP: percent change from baseline
# Protocol: The effects of 3-(1H-imidazol-4-ylmethyl)-indan-5-ol on blood pressure and heart rate after slow intravenous administration were studied in anaesthetized rats. Dexmedetomidine (Orion Corporation Orion Pharma, Finland), a specific α2-adrenoceptor agonist was studied as a reference compound.
# Male Spraque-Dawley rats (B&K, Sweden), weighing 290-400 g, were anaesthetized with sodium pentobarbital (Mebunat® 60 mg/ml) 75 mg/kg i.p. The left femoral vein was cannulated (PE-50) for slow drug injections. The left femoral artery was cannulated (PE-60) and the mean arterial blood pressure (MAP) and heart rate (HR) were recorded continuously via a Micro MP-15 transducer connected to a Grass Model 7D Polygraph. Arterial pressure was sampled at a rate 150 samples/second and recorded on a Pinus PC computer using the software program AcqKnowledge version 3.5.3 and a MP100A data acquisition unit for analog/digital conversion (BIOPAC Systems, Inc.). Pulse waves of the blood pressure were used for displaying heart rate continuously. The body temperature (rectal) was kept constant at 37±0.5° C. by warming with a lamp above the animal's chest. Only rats with MAP of 73 mmHg or higher were used for the tests. After a stabilizing period of 10-20 min, 3-(1H-imidazol-4-ylmethyl)-indan-5-ol (1 and 3 μg/kg, as hydrochloride) or dexmedetomidine (3 and 10 μg/kg, as hydrochlorides) dose was given as slow intravenous injection (during 5 min) by an infusion pump (Perfusor® ED 2, B. Braun). The total injection volume was adjusted to 1 ml in each experimental group.
# [1] = dose 3 μg/kg slow i.v. (during 5 min), time 0 min
# [2] = dose 3 μg/kg slow i.v. (during 5 min), time 3 min
# [3] = dose 3 μg/kg slow i.v. (during 5 min), time 5 min
# [4] = dose 3 μg/kg slow i.v. (during 5 min), time 10 min
# [5] = dose 3 μg/kg slow i.v. (during 5 min), time 20 min
# [6] = dose 3 μg/kg slow i.v. (during 5 min), time 30 min
# [7] = dose 10 μg/kg slow i.v. (during 5 min), time 0 min
# [8] = dose 10 μg/kg slow i.v. (during 5 min), time 2 min
# [9] = dose 10 μg/kg slow i.v. (during 5 min), time 5 min
# [10] = dose 10 μg/kg slow i.v. (during 5 min), time 10 min
# [11] = dose 10 μg/kg slow i.v. (during 5 min), time 20 min
# [12] = dose 10 μg/kg slow i.v. (during 5 min), time 30 min
# [13] = slow intravenous administration of 3 and 10 μg/kg
# [14] = dose 1 μg/kg slow i.v. (during 5 min), time 0 min
# [15] = dose 1 μg/kg slow i.v. (during 5 min), time 3 min
# [16] = dose 1 μg/kg slow i.v. (during 5 min), time 5 min
# [17] = dose 1 μg/kg slow i.v. (during 5 min), time 10 min
# [18] = dose 1 μg/kg slow i.v. (during 5 min), time 20 min
# [19] = dose 1 μg/kg slow i.v. (during 5 min), time 30 min
# [20] = slow (during 5 minutes) i.v. dosing of 1 and 3 μg/kg
compound,measurement,setting,value
"Cc1cccc([C@H](C)c2cnc[nH]2)c1C [Dexmedetomidine, dexmedetomidine]",HR (beats/min),[1],348 ± 12 beats/min
same,MAP (mmHg),[1],89 ± 5 mmHg
same,HR (beats/min),[2],310 ± 6 beats/min
same,MAP (mmHg),[2],86 ± 5 mmHg
same,HR (beats/min),[3],310 ± 5 beats/min
same,MAP (mmHg),[3],79 ± 7 mmHg
same,HR (beats/min),[4],308 ± 4 beats/min
same,MAP (mmHg),[4],61 ± 4 mmHg
same,HR (beats/min),[5],309 ± 5 beats/min
same,MAP (mmHg),[5],65 ± 2 mmHg
same,HR (beats/min),[6],309 ± 5 beats/min
same,MAP (mmHg),[6],67 ± 2 mmHg
same,HR (beats/min),[7],383 ± 11 beats/min
same,MAP (mmHg),[7],92 ± 2 mmHg
same,HR (beats/min),[8],308 ± 5 beats/min
same,MAP (mmHg),[8],94 ± 4 mmHg
same,HR (beats/min),[9],309 ± 3 beats/min
same,MAP (mmHg),[9],75 ± 6 mmHg
same,HR (beats/min),[10],303 ± 3 beats/min
same,MAP (mmHg),[10],59 ± 3 mmHg
same,HR (beats/min),[11],296 ± 7 beats/min
same,MAP (mmHg),[11],68 ± 2 mmHg
same,HR (beats/min),[12],297 ± 6 beats/min
same,MAP (mmHg),[12],73 ± 2 mmHg
same,maximal change in HR,[13],−21%
same,maximal change in MAP,[13],−37%
"Oc1ccc2c(c1)C(Cc1c[nH]cn1)CC2 (stereo not shown) [MPV-2426 Al, 3-(1H-imidazol-4-ylmethyl)-indan-5-ol]",HR (beats/min),[14],373 ± 8 beats/min
same,MAP (mmHg),[14],97 ± 4 mmHg
same,HR (beats/min),[15],324 ± 9 beats/min
same,MAP (mmHg),[15],114 ± 3 mmHg
same,HR (beats/min),[16],321 ± 9 beats/min
same,MAP (mmHg),[16],112 ± 3 mmHg
same,HR (beats/min),[17],327 ± 7 beats/min
same,MAP (mmHg),[17],83 ± 4 mmHg
same,HR (beats/min),[18],319 ± 9 beats/min
same,MAP (mmHg),[18],84 ± 4 mmHg
same,HR (beats/min),[19],317 ± 9 beats/min
same,MAP (mmHg),[19],80 ± 3 mmHg
same,HR (beats/min),[1],366 ± 11 beats/min
same,MAP (mmHg),[1],94 ± 5 mmHg
same,HR (beats/min),[2],309 ± 7 beats/min
same,MAP (mmHg),[2],123 ± 9 mmHg
same,HR (beats/min),[3],311 ± 4 beats/min
same,MAP (mmHg),[3],117 ± 12 mmHg
same,HR (beats/min),[4],321 ± 4 beats/min
same,MAP (mmHg),[4],88 ± 4 mmHg
same,HR (beats/min),[5],321 ± 6 beats/min
same,MAP (mmHg),[5],83 ± 5 mmHg
same,HR (beats/min),[6],305 ± 6 beats/min
same,MAP (mmHg),[6],77 ± 3 mmHg
same,maximal change in HR,[20],−19%
same,maximal change in MAP,[20],+31%
